Drawing on patent publication US11702427B2 (priority 2018, dated 2023), this text covers EC50 for 23 molecules.

This test has as its system HBsAg. Briefly: HBsAg assay: inhibition of HBsAg in HepG2.2.15 cells (CLIA immunoassay of supernatant). Type of test: cell-based, hepatitis B virus (HBV). The settings on record: Hepatitis B virus, HepG2.2.15, 144 h, read-out: sAg EC50, HepG2.2.15 cells; supernatant collected at day 6 after exposure; HBsAg chemiluminescence immunoassay. The method, then:
Inhibition of HBsAg was determined in HepG2.2.15 cells. Cells were maintained in culture medium containing 10% fetal calf serum, […], Glutamine, penicillin/streptomycin. Cells were seeded in 96-well collagen-coated plate at a density of 30,000 cells/well. Serially diluted compounds were added to cells next day at the final DMSO concentration of 0.5%. Cells were incubated with compounds for 2-3 days, after which medium was removed. Fresh medium containing compounds was added to cells for additional 3-4 days. At day 6 after exposure of compounds, supernatant was collected, the HBsAg immunoassay (microplate-based chemiluminescence immunoassay kits, CLIA, Autobio Diagnosics Co., Zhengzhou, China, Catalog #CL0310-2) was used to determine the level of HBsAg according to manufactory instruction. Dose-response curves were generated and the EC50 value (effective concentrations that achieved 50% inhibitory effect) were determined using XLfit software. In addition, cells can be seeded at a density of 5,000 cells/well for determination of cell viability in the presence and absence of compounds by using CellTiter-Glo reagent (Promega). Tables 1-3 show EC50 values obtained by the HBsAg assay for selected compounds.
`COCCCOc1cc2c(nc1OC)-c1[nH]c(=O)c(C(=O)O)cc1C(C(C)C)C2` (centres unmarked) [Example 43, 5-Isopropyl-9-methoxy-8-(3-methoxypropoxy)-2-oxo-1,2,5,6-tetrahydro-1,10-phenanthroline-3-carboxylic acid]: the EC50 amounted to 3 nM. Then `COCCCOc1cc2c(nc1OC)-c1[nH]c(=O)c(C(=O)O)cc1C(C(C)(C)C)C2` (centres unmarked) [Example 46, 5-(tert-Butyl)-9-methoxy-8-(3-methoxypropoxy)-2-oxo-1,2,5,6-tetrahydro-1,10-phenanthroline-3-carboxylicacid], with 1 nM; and `COCCCOc1cc2c(nc1C1CC1)-c1[nH]c(=O)c(C(=O)O)c(O)c1C(C(C)C)C2` (centres unmarked) [Example 49, 9-Cyclopropyl-4-hydroxy-5-isopropyl-8-(3-methoxypropoxy)-2-oxo-1,2,5,6-tetrahydro-1,10-phenanthroline-3-carboxylicacid], with 1 nM. Consider `CCCc1nc2c(cc1OCCCOC)CC(C(C)C)c1c-2[nH]c(=O)c(C(=O)O)c1O` (centres unmarked) [Example 50, 4-Hydroxy-5-isopropyl-8-(3-methoxypropoxy)-2-oxo-9-propyl-1,2,5,6-tetrahydro-1,10-phenanthroline-3-carboxylic acid], for which the EC50 was found to be 2 nM.

`COCCCOc1cc2c(nc1NCCOC)-c1[nH]c(=O)c(C(=O)O)c(O)c1C(C(C)C)C2` (centres unmarked) [Example 51, 4-Hydroxy-5-isopropyl-9-((2-methoxyethyl)amino)-8-(3-methoxypropoxy)-2-oxo-1,2,5,6-tetrahydro-1,10-phenanthroline-3-carboxylicacid]: the EC50 was determined as 10000 nM.

For `COCCCOc1cc2c(nc1NCCOC)-c1[nH]c(=O)c(C(=O)NCCOC)c(O)c1C(C(C)C)C2` (centres unmarked) [Example 52, 4-Hydroxy-5-isopropyl-N-(2-methoxyethyl)-9-((2-methoxyethyl)amino)-8-(3-methoxypropoxy)-2-oxo-1,2,5,6-tetrahydro-1,10-phenanthroline-3-carboxamide], the EC50 was found to be 13000 nM. As for `CNc1nc2c(cc1OCCCOC)CC(C(C)C)c1c-2[nH]c(=O)c(C(=O)O)c1O` (centres unmarked) [Example 53, 4-Hydroxy-5-isopropyl-8-(3-methoxypropoxy)-9-(methylamino)-2-oxo-1,2,5,6-tetrahydro-1,10-phenanthroline-3-carboxylic acid], the EC50 was 15 nM. To `COCCCOc1cc2c(nc1N(C)C)-c1[nH]c(=O)c(C(=O)O)c(O)c1C(C(C)C)C2` (centres unmarked) [Example 54, 9-(Dimethylamino)-4-hydroxy-5-isopropyl-8-(3-methoxypropoxy)-2-oxo-1,2,5,6-tetrahydro-1,10-phenanthroline-3-carboxylicacid] belongs 10 nM; to `CNc1nc2c(cc1OCCCOC)CC(C(C)C)c1cc(C(=O)O)c(=O)[nH]c1-2` (centres unmarked) [Example 55, 5-Isopropyl-8-(3-methoxypropoxy)-9-(methylamino)-2-oxo-1,2,5,6-tetrahydro-1,10-phenanthroline-3-carboxylicacid], 2 nM; to `COCCCOc1cc2c(nc1C1CC1)-c1[nH]c(=O)c(C(=O)O)cc1C(C(C)C)C2` (centres unmarked) [Example 56, 9-Cyclopropyl-5-isopropyl-8-(3-methoxypropoxy)-2-oxo-1,2,5,6-tetrahydro-1,10-phenanthroline-3-carboxylicacid], 1 nM. Then `COCCCOc1cc2c(cc1OC)-c1[nH]c(=O)c(-c3ncn[nH]3)c(O)c1C(C(C)C)C2` (centres unmarked) [Example 57, 4-Hydroxy-5-isopropyl-9-methoxy-8-(3-methoxypropoxy)-3-(1H-1,2,4-triazol-5-yl)-5,6-dihydrobenzo[h]quinolin-2(1H)-one], with 11 nM.

`COCCCOc1cc2c(cc1OC)-c1[nH]c(=O)c(C(N)=O)c(O)c1C(C(C)C)C2` (centres unmarked) [Example 58, 4-Hydroxy-5-isopropyl-9-methoxy-8-(3-methoxypropoxy)-2-oxo-1,2,5,6-tetrahydrobenzo[h]quinoline-3-carboxamide]: the EC50 was determined as 20 nM. `COCCCOc1cc2c(nc1OC)-c1[nH]c(=O)c(C(N)=O)c(O)c1C(C(C)(C)C)C2` (centres unmarked) [Example 59, 5-(tert-Butyl)-4-hydroxy-9-methoxy-8-(3-methoxypropoxy)-2-oxo-1,2,5,6-tetrahydro-1,10-phenanthroline-3-carboxamide]: the EC50 is 3 nM. As for `COCCCOc1cc2c(nc1OC)-c1[nH]c(=O)c(C(N)=O)cc1C(C(C)(C)C)C2` (centres unmarked) [Example 62, 5-(tert-Butyl)-9-methoxy-8-(3-methoxypropoxy)-2-oxo-1,2,5,6-tetrahydro-1,10-phenanthroline-3-carboxamide], the EC50 was found to be 25 nM. To `CNC(=O)c1c(O)c2c([nH]c1=O)-c1nc(OC)c(OCCCOC)cc1CC2C(C)(C)C` (centres unmarked) [Example 63, 5-(tert-Butyl)-4-hydroxy-9-methoxy-8-(3-methoxypropoxy)-N-methyl-2-oxo-1,2,5,6-tetrahydro-1,10-phenanthroline-3-carboxamide] belongs 18 nM.

For `COCCCOc1cc2c(nc1OC)-c1[nH]c(=O)c(C(=O)N(C)C)c(O)c1C(C(C)(C)C)C2` (centres unmarked) [Example 64], the EC50 came to 2000 nM. On to `COCCCOc1cc2c(nc1OC)-c1[nH]c(=O)c(C(=O)NO)c(O)c1C(C(C)(C)C)C2` (centres unmarked) [Example 65, 5-(tert-Butyl)-N,4-dihydroxy-9-methoxy-8-(3-methoxypropoxy)-2-oxo-1,2,5,6-tetrahydro-1,10-phenanthroline-3-carboxamide], for which the EC50 stood at 2 nM.

For the molecule `COCCCOc1cc2c(cc1OC)-c1[nH]c(=O)c(C(=O)NO)c(O)c1C(C(C)C)C2` (centres unmarked) [Example 66, N,4-Dihydroxy-5-isopropyl-9-methoxy-8-(3-methoxypropoxy)-2-oxo-1,2,5,6-tetrahydrobenzo[h]quinoline-3-carboxamide], the EC50 was 41 nM. Turning to `COCCCOc1cc2c(nc1OC)-c1[nH]c(=O)c(C(=O)NO)cc1C(C(C)(C)C)C2` (centres unmarked) [Example 67, 5-(tert-Butyl)-N-hydroxy-9-methoxy-8-(3-methoxypropoxy)-2-oxo-1,2,5,6-tetrahydro-1,10-phenanthroline-3-carboxamide], the EC50 came to 5 nM. As for `COCCCOc1cc2c(nc1OC)-c1nc(Cl)c(C(=O)O)c(Cl)c1C(C(C)(C)C)C2` (centres unmarked) [Example 68, 5-(tert-Butyl)-2,4-dichloro-9-methoxy-8-(3-methoxypropoxy)-5,6-dihydro-1,10-phenanthroline-3-carboxylicacid], the EC50 came to 10000 nM.

Regarding `COCCCOc1cc2c(cc1Cl)-c1[nH]c(=O)c(C(=O)O)cc1[C@H](C(C)C)CO2` [Example 69, (S)-10-Chloro-5-isopropyl-9-(3-methoxypropoxy)-2-oxo-1,2,5,6-tetrahydrobenzo[2,3]oxepino[4,5-b]pyridine-3-carboxylicacid], the EC50 worked out at 200 nM. As for `COCCCOc1cc2c(cc1Cl)-c1[nH]c(=O)c(C(=O)O)c(O)c1[C@H](C(C)C)CO2` [Example 70, (S)-10-Chloro-4-hydroxy-5-isopropyl-9-(3-methoxypropoxy)-2-oxo-1,2,5,6-tetrahydrobenzo[2,3]oxepino[4,5-b]pyridine-3-carboxylic acid], the EC50 was determined as 120 nM. With `COCCCOc1cc2c(cc1COC)-c1[nH]c(=O)c(C(=O)O)c(O)c1[C@H](C(C)C)CO2` [Example 71, (S)-4-Hydroxy-5-isopropyl-10-(methoxymethyl)-9-(3-methoxypropoxy)-2-oxo-1,2,5,6-tetrahydrobenzo[2,3]oxepino[4,5-b]pyridine-3-carboxylicacid], the EC50 was found to be 280 nM.
